# Reference: US11299493B2, “Heterocyclic compounds and uses thereof” (NUVATION BIO INC., priority 2017, dated 2022)
# Assays:
# WEE1 kinase enzyme = WEE1 kinase enzyme (Homo sapiens (Human), UniProt P30291); assay: WEE1 IC50 determination, LanthaScreen Terbium Labeled TR-FRET kinase assay; assay type: biochemical; conditions: WEE1 enzyme 1 nM, ATP 10 μM, 1 h
# Method: IC50 values of compounds against WEE1 kinase enzyme were determined by LanthaScreen™ Terbium Labeled TR-FRET assay. […] After 1 h, […] stop solution containing Terbium labeled antibody (4 nM) (#PV3529, Invitrogen, Life Technologies Grand Island, N.Y.) and EDTA (#E5134, Sigma, St-Louis, Mo.) (20 mM) in TR-FRET dilution buffer (#PV3574, Invitrogen, Life Technologies Grand Island, N.Y.) was added. Readings were taken in a Synergy Neo Plate reader (BioTek, Winooski) at single excitation of 340 nm and Dual emission at 495 nm and 520 nm respectively.
# The % activity of test samples was calculated as (Sample−Min)*100/(Max−Min). [Max: DMSO control, complete reaction with enzyme & DMSO and Min: No enzyme & DMSO].
# A549 cells = assay: Cytotoxicity assay (resazurin) in A549 cells; assay type: cell-based; conditions: Homo sapiens, A549, 96 hr, read-out: Cell Viability IC50 A549
# Method: (§1) Cells were allowed to grow at 37° C. for 24 hr in 5% CO2 environment (culture conditions) in a Nuaire incubator (humidified). Serially diluted test compounds (100 μL) within the desired testing concentration ranges were added to the culture plate were further incubated in culture conditions for 72 hr and 96 hr for A427 and A549 respectively. The experiment was terminated at the designated incubation time by replacing the medium with 100 μL of 1 mM of resazurin (R7017; Sigma) prepared in respective culture medium, and the plates were further incubated in culture conditions for 4-6 hr. Fluorescence was recorded using a multimodal plate reader (Biotek Synergy Neo) at an excitation wavelength of 535 nm and emission wavelength of 590 nm to obtain relative fluorescence units. Data analysis was done by subtracting the background fluorescence (only medium blank) value from each reading and then normalizing with the vehicle control (DMSO treated cells) to obtain percent survival/proliferation. Percent survival was then subtracted by 100 to get the percent inhibition of proliferation which was used to calculate IC50 values.
# A427 cells = assay: Cytotoxicity assay (resazurin) in A427 cells; assay type: cell-based; conditions: Homo sapiens, A-427, 72 h, A427, 72 hr, read-out: Cell Viability IC50 A427
# Method: as §1
# Panc 10.05 cells = assay: Cytotoxicity assay (resazurin) in Panc 10.05 cells; assay type: cell-based; conditions: Homo sapiens, Panc1005; Panc 10.05, resazurin; read-out: Cell Viability IC50 Panc 10.05
# Method: [The source words this procedure for another cell line and reports this cell line under the same test.] as §1, with “A549 (CCL-185; ATCC) and A427 (HTB-53; ATCC), both lung epithelial cell lines were seeded in their respective medium (DMEM/MEM, 10569044/41090101; Gibco) at a cell count of 1500 cells per 100 μL per well in a 96 well edge plate (167425; ThermoFisher). Cells” for “Cells”, “values. Potency of compounds in other cell lines (As-Pc-1, Panc 10.05, A172) was determined in an analogous manner.” for “values.”
# A172 cells = assay: Cytotoxicity assay (resazurin) in A172 cells; assay type: cell-based; conditions: Homo sapiens, A 172, read-out: Cell Viability IC50 A172
# Method: [The source words this procedure for another cell line and reports this cell line under the same test.] as §1, with “A549 (CCL-185; ATCC) and A427 (HTB-53; ATCC), both lung epithelial cell lines were seeded in their respective medium (DMEM/MEM, 10569044/41090101; Gibco) at a cell count of 1500 cells per 100 μL per well in a 96 well edge plate (167425; ThermoFisher). Cells” for “Cells”, “values. Potency of compounds in other cell lines (As-Pc-1, Panc 10.05, A172) was determined in an analogous manner.” for “values.”
# As-Pc-1 cells = assay: Cytotoxicity assay (resazurin) in As-Pc-1 cells; assay type: cell-based; conditions: Homo sapiens, ASPC1; As-Pc-1, resazurin; read-out: Cell Viability IC50 As-Pc-1
# Method: [The source words this procedure for another cell line and reports this cell line under the same test.] as §1, with “A549 (CCL-185; ATCC) and A427 (HTB-53; ATCC), both lung epithelial cell lines were seeded in their respective medium (DMEM/MEM, 10569044/41090101; Gibco) at a cell count of 1500 cells per 100 μL per well in a 96 well edge plate (167425; ThermoFisher). Cells” for “Cells”, “values. Potency of compounds in other cell lines (As-Pc-1, Panc 10.05, A172) was determined in an analogous manner.” for “values.”
# Chain of WEE1 kinase enzyme (P30291 whole entry): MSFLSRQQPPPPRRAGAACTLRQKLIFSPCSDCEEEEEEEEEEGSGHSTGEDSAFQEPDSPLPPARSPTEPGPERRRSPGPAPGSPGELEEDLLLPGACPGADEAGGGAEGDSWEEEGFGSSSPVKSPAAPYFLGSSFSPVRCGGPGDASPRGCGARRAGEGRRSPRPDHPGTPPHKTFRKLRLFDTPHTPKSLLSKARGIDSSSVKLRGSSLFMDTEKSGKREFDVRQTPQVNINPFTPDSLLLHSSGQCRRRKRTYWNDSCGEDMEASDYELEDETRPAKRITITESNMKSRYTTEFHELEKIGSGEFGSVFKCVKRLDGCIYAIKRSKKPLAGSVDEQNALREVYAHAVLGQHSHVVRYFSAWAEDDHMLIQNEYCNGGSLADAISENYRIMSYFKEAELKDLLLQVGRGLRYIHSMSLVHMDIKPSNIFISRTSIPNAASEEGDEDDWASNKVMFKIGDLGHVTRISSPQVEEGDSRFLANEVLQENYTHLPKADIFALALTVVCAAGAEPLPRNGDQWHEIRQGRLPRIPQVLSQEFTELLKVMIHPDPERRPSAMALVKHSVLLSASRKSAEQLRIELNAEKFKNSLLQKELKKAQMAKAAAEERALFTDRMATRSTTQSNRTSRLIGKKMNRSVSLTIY
SMILES,IC50 (WEE1 kinase enzyme),IC50 (A549 cells),IC50 (A427 cells),IC50 (Panc 10.05 cells),IC50 (A172 cells),IC50 (As-Pc-1 cells)
C=CCn1c(=O)c2cnc(Nc3ccc4c(c3)CCNC4)nc2n1-c1cccc(C(C)(C)O)n1 [Example 1.8],1 nM,545 nM,–,–,–,–
C=CCn1c(=O)c2cnc(Nc3ccc4c(c3)CN(C)CC4)nc2n1-c1cccc(C(C)(C)O)n1 [Example 1.9],1 nM,520 nM,–,–,–,–
CC(C)n1c(=O)c2cnc(Nc3ccc4c(c3)CNCC4)nc2n1-c1cccc(C(C)(C)O)n1 [Example 1.10],2 nM,510 nM,340 nM,–,–,–
CC(C)(O)c1cccc(-n2c3nc(Nc4ccc5c(c4)CNCC5)ncc3c(=O)n2CC2CC2)n1 [Example 1.11],2 nM,1180 nM,430 nM,–,–,–
CCn1c(=O)c2cnc(Nc3ccc4c(c3)CNCC4(C)C)nc2n1-c1cccc(C(C)(C)O)n1 [Example 1.13],1.5 nM,895 nM,1000 nM,–,–,–
CCn1c(=O)c2cnc(Nc3ccc4c(c3)CN(C(=O)CO)CC4(C)C)nc2n1-c1cccc(C(C)(C)O)n1 [Example 1.14],1 nM,1620 nM,–,–,–,–
CCCn1c(=O)c2cnc(Nc3ccc4c(c3)CNCC4)nc2n1-c1cccc(C(C)(C)O)n1 [Example 1.15],1.5 nM,1200 nM,560 nM,–,–,–
CC(C)(O)c1cccc(-n2c3nc(Nc4ccc5c(c4)CNCC5)ncc3c(=O)n2C2CC2)n1 [Example 1.17],9.5 nM,9060 nM,2320 nM,–,–,–
CC(C)n1c(=O)c2cnc(Nc3ccc4c(c3)CCNC4)nc2n1-c1cccc(C(C)(C)F)n1 [Example 1.140],5 nM,–,555 nM,1520 nM,–,–
CC(C)(C)c1cccc(-n2c3nc(Nc4ccc5c(c4)CCNC5)ncc3c(=O)n2C2CC2)n1 [Example 1.143],3 nM,2850 nM,470 nM,1850 nM,3620 nM,270 nM
CC(C)n1c(=O)c2cnc(Nc3ccc4c(c3)NCCC4)nc2n1-c1ccnc(C(C)(C)F)c1 [Example 1.168],4150 nM,–,4000 nM,–,–,–
CC(C)n1c(=O)c2cnc(Nc3ccc4c(c3)CNCC4)nc2n1-c1ccnc(C(C)(C)F)c1 [Example 1.169],16 nM,–,2740 nM,–,–,–
"CC(C)n1c(=O)c2cnc(Nc3ccc4c(c3)CCC(N(C)C)C4)nc2n1-c1ccnc(C(C)(C)C)c1 (centres unmarked) [Example 1.170, 1-(2-tert-butylpyridin-4-yl)-6-{[6-(dimethylamino)-5,6,7,8-tetrahydronaphthalen-2-yl]amino}-2-(propan-2-yl)-1H,2H,3H-pyrazolo[3,4-d]pyrimidin-3-one]",12 nM,–,775 nM,–,–,–
CC(C)n1c(=O)c2cnc(Nc3ccc4c(c3)CC(N(C)C)CC4)nc2n1-c1ccnc(C(C)(C)C)c1 (centres unmarked) [Example 1.171],6 nM,–,735 nM,–,–,–
CC(C)n1c(=O)c2cnc(Nc3ccc4c(c3)CCNC4)nc2n1-c1ccnc(N(C)C)c1 [Example 1.172],12 nM,–,1350 nM,–,–,–
COC(=O)N1CCc2cc(Nc3ncc4c(=O)n(C(C)C)n(-c5ccnc(C(C)(C)C)c5)c4n3)ccc2C1 [Example 1.173],343 nM,–,2330 nM,–,–,–
CC(C)(C)c1cc(-n2c3nc(Nc4ccc5c(c4)CNCC5)ncc3c(=O)n2CC(F)(F)F)ccn1 [Example 1.174],108 nM,–,4000 nM,–,–,–
CC(C)n1c(=O)c2cnc(Nc3ccc4c(c3)CCNC4)nc2n1-c1ccc(N(C)C)c(C(C)(C)C)c1 [Example 1.175],156 nM,–,1160 nM,–,–,–
CC(C)n1c(=O)c2cnc(Nc3ccc4c(c3)CCNC4(C)C)nc2n1-c1ccnc(C(C)(C)C)c1 [Example 1.176],8 nM,–,595 nM,–,–,–
CC(C)n1c(=O)c2cnc(Nc3ccc4c(c3)CCNC4)nc2n1-c1ccnc(N(C)S(C)(=O)=O)c1 [Example 1.177],12 nM,–,1970 nM,–,–,–
CC(C)n1c(=O)c2cnc(Nc3ccc4c(c3)CCNC4)nc2n1-c1ccnc(C(C)(C)O)c1 [Example 1.178],14 nM,–,6200 nM,–,–,–

SMILES,IC50 (WEE1 kinase enzyme),IC50 (A549 cells),IC50 (A427 cells),IC50 (Panc 10.05 cells),IC50 (A172 cells),IC50 (As-Pc-1 cells)
CC(C)n1c(=O)c2cnc(Nc3ccc4c(c3)CCNC4)nc2n1-c1ccc(F)c(C(C)(C)O)c1 [Example 2.185],34 nM,–,1540 nM,–,–,–
CC(C)n1c(=O)c2cnc(Nc3ccc4c(c3)CNCC4)nc2n1-c1ccc(F)c(C(C)(C)O)c1 [Example 2.186],24 nM,–,905 nM,–,–,–
CC(C)n1c(=O)c2cnc(Nc3ccc4c(c3)CCNC4(C)C)nc2n1-c1ccnc(C(C)(C)F)c1 [Example 2.187],12 nM,–,435 nM,–,–,–
CC(C)n1c(=O)c2cnc(Nc3ccc4c(c3)CNCC4)nc2n1-c1ccn(C2CC2)n1 [Example 2.189],43 nM,–,1990 nM,–,–,–
CC(C)n1c(=O)c2cnc(Nc3ccc4c(c3)CNCC4)nc2n1-c1cc(C(C)(C)C)ccn1 [Example 2.287],120 nM,–,1960 nM,–,–,–
CC(C)n1c(=O)c2cnc(Nc3ccc4c(c3)CCNC4)nc2n1-c1cc(C(C)(C)C)ccn1 [Example 2.288],217 nM,–,2580 nM,–,–,–
CC(C)n1c(=O)c2cnc(Nc3ccc4c(c3)CCNC4)nc2n1-c1ccn(C)n1 [Example 2.289],49 nM,–,8760 nM,–,–,–
CC(C)n1c(=O)c2cnc(Nc3ccc4c(c3)CCNC4)nc2n1-c1ccc(F)cn1 [Example 2.290],90 nM,–,3370 nM,–,–,–
CC(C)n1c(=O)c2cnc(Nc3ccc4c(c3)CNCC4)nc2n1-c1ccc(F)cn1 [Example 2.291],46 nM,–,7990 nM,–,–,–
CC(C)n1c(=O)c2cnc(Nc3ccc4c(c3)CNCC4)nc2n1-c1ccn(C)n1 [Example 2.292],43 nM,–,13300 nM,–,–,–
COC(C)(C)c1cc(-n2c3nc(Nc4ccc5c(c4)CCNC5)ncc3c(=O)n2C(C)C)ccn1 [Example 2.293],> 3650 nM,–,> 30000 nM,–,–,–
CC(C)(F)c1cc(-n2c3nc(Nc4ccc5c(c4)CNCC5(C)C)ncc3c(=O)n2C2CC2)ccn1 [Example 2.605],123 nM,–,5960 nM,–,–,–
CC(C)n1c(=O)c2cnc(Nc3ccc4c(c3)CCNC4(C)C)nc2n1-c1cccc(N(C)S(C)(=O)=O)n1 [Example 2.642],6 nM,–,2460 nM,–,–,–
CC(C)n1c(=O)c2cnc(Nc3ccc4c(c3)CCNC4(C)C)nc2n1-c1ccn(C2CC2)n1 [Example 2.643],26 nM,–,2180 nM,–,–,–
CC(C)n1c(=O)c2cnc(Nc3ccc4c(c3)CCN(C)C4)nc2n1-c1ccnc(C(C)(C)C)c1 [Example 2.644],5 nM,–,2330 nM,–,–,–
CC(C)n1c(=O)c2cnc(Nc3ccc4c(c3)CCNC4)nc2n1-c1cccc(N(C)S(C)(=O)=O)n1 [Example 2.645],5 nM,–,4010 nM,–,–,–
CC(C)n1c(=O)c2cnc(Nc3ccc4c(c3)CNCC4(C)C)nc2n1-c1ccn(C2CC2)n1 [Example 2.646],15 nM,–,4370 nM,–,–,–
CC(C)n1c(=O)c2cnc(Nc3ccc4c(c3)CCNC4)nc2n1-c1ccsc1 [Example 2.647],10 nM,–,2650 nM,–,–,–
CC(C)n1c(=O)c2cnc(Nc3ccc4c(c3)CNCC4)nc2n1-c1cccc(C(C)(C)C#N)n1 [Example 3.035],2 nM,–,420 nM,–,–,–
CC(C)n1c(=O)c2cnc(Nc3ccc4c(c3)CCNC4)nc2n1-c1cccc(C(C)(C)C#N)n1 [Example 3.036],5 nM,–,250 nM,–,–,–
